Experimental data reported in US20250057864A1, “COMPOSITION FOR IMPROVING EXERCISE PERFORMANCE COMPRISING GYPENOSIDE COMPOUND AS ACTIVE INGREDIENT” (BTC CORPORATION, priority 2022, published 2025).

System: ICR mice
Experiment: Serum markers after 60 min forced swimming without weight load
Type: in vivo
Settings: serum after 60 min forced swimming, day 17, oral 7 mg/kg BW
Description: On day 17 after the administration of the test substance, the experimental animal was forced to swim (for 60 minutes) without a weight load. Then, the experimental animal was anesthetized using an anesthetic prepared by dilution of tribromoethanol with tertiary amyl alcohol and blood was taken from the eye socket. The blood was placed in a serum-separating tube (Becton Dickinson) and left at room temperature for 30 minutes, centrifuged at 3,000 rpm for 20 minutes to separate the serum, and kept at −70° C. until analysis.
Blood urea nitrogen (BUN) and creatinine (CREA) content in the serum and the activities of alanine aminotransferase (ALT), aspartate aminotransferase (AST), creatine kinase (CK) and lactate dehydrogenase (LDH) were measured using a blood biochemistry analyzer (KoneLab 20 XT, Thermo Fisher Scientific). The serum lactate content was measured using a lactate assay kit (Abcam) according to the method proposed by the manufacturer.
The result of measuring the contents of lactate, BUN and CREA and the activities of CK, LDH, ALT and AST in the serum taken after forced swimming for 60 minutes without weight load is shown in Table 19.

SMILES: CC(C)=CCC[C@](C)(O)C1CC[C@]2(C)C1[C@H](O)CC1[C@@]3(C)C[C@@H](O)C(OC4OC(CO)C(O)C(O)C4OC4OC(CO)C(O)C(O)C4O)C(C)(C)C3CC[C@]12C (stereo partly drawn) [Example 1, Gypenoside L]
- ALT: 100.41 ± 19.75 U/L
- AST: 160.81 ± 20.53 U/L
- BUN: 8.15 ± 0.68 mg/dL
- CK: 1896.1 ± 196.4 U/L
- CREA: 0.35 ± 0.01 mg/dL
- LDH: 1224.3 ± 162.1 U/L
